Laboratory results reported in patent publication US9221795B2, “Phosphatidylinositol 3-kinase inhibitors” (Gilead Sciences, Inc., priority 2013, dated 2015).

How the values were obtained:
PI3Kδ = PI3Kδ (Homo sapiens (Human), UniProt O00329); assay: Enzymatic activity of PI3K isoforms, TR-FRET assay (PI3Kδ); type: biochemical; settings: 2× Km ATP, geometric mean if more than one value
Outline: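 Recombinant heterodimeric PI3Kβ or PI3Kδ (25-50 pM) was run with 2 μM PIP2 and 2× Km ATP (75-500 μM) at pH 7.4, for 30 min at 25° C. PIP3 formation was detected by TR-FRET displacement of labeled PIP3 from Eu-GRP-1. IC50 values in nM come from four-parameter fits, as geometric means.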

basophils = assay: Basophil activation in human whole blood (Flow2 CAST kit, CD63 flow cytometry); type: cell-based
Protocol: Effect on basophil activation was measured in human whole blood using the Flow2 CAST® kit (Buhlmann Laboratories AG, Baselstrasse, Switzerland) following the protocol provided by the manufacturer with minor modifications. Human whole blood was collected into K2-EDTA venipuncture tubes. Whole blood samples were treated with either DMSO (0.3% final) or a serial dilution of compounds in DMSO for 60 minutes at 37° C. Basophils were then activated either with anti-FcεRI mAb or with fMLP. To activate basophils using the anti-FcεRI mAb; 50 μL of whole blood was mixed with 110 μL of stimulation buffer (B-BAT-STB) and 20 μl of anti-FcεRI (B-BAT-STCON). To activate basophils with fMLP; 50 μL of whole blood was mixed with 80 μL of stimulation buffer (B-BAT-STB) and 50 μL of fMLP (B-CCR-FMLP). Stimulation buffer was used as a negative control. 20 μL of the staining reagent (combination of anti-human CD63-FITC and anti-human CCR3-PE mAbs) was then added to each tube. The tubes were mixed gently and incubated for 25 minutes at 37° C. Subsequently, erythrocytes were lysed and fixed by the addition of 2 mL of lysing solution (B-BAT-LYR) for 10 minutes at room temperature. Cells were pelleted by centrifugation at 1200 rpm for 10 minutes at room temperature in a swing-out rotor. Supernatant was aspirated and cell pellet resuspended in 400 μL of wash buffer. Flow cytometric analysis of the basophil activation was performed on a FC500MPL flow cytometer (Beckman Coulter Inc., Fullerton, Calif.). CCR3-staining and side scatter were applied to gate at least 200 basophils that expressed a high density of CCR3. The percent CD63 positive cells within the gated basophil population were determined in different treatment groups and normalized to the vehicle control (0.3% DMSO) with anti-FcεRI mAb of fMLP stimulus as 100%. Final compound concentration was adjusted to correct for dilution effect of added reagents. The EC50 values were calculated from the analysis of the dose-response curves to a four-parameter equation.

[1] = Hepatocyte stability (parent drug disappearance in cryopreserved hepatocytes); type: in vitro ADME, human; settings: human, human hepatocytes
Protocol: This assay was used to evaluate the metabolic stability of test articles (TA) following incubation in cryopreserved hepatocytes by monitoring parent drug disappearance via LC/MC. The TA was incubated with 1 million hepatocytes/mL at 2 μM substrate in duplicate. The incubation was carried out at 37° C. with 5% CO2 and saturating humidity. Samples were taken at 0, 1, 2, and 4 hours to monitor the disappearance of TA and a half-life (t1/2) was determined. Table 3 below summarizes the human hepatocyte t1/2 values (hours) collected in the Example.

[2] = Homo sapiens, class symbol, human whole blood, basophils activated with anti-FcεRI mAb or fMLP, percent CD63 positive cells
[3] = Homo sapiens, human whole blood, basophils activated with anti-FcεRI mAb or fMLP, percent CD63 positive cells, geometric mean
[4] = cryopreserved human hepatocytes, class symbol, 2 μM substrate, 37° C.
[5] = cryopreserved human hepatocytes, 2 μM substrate, 37° C., Table 3
[6] = Homo sapiens, basophil activation in human whole blood, comparison Table 4
[7] = cryopreserved hepatocytes, comparison Table 4
[8] = class symbol, human whole blood, basophils activated with anti-FcεRI mAb or fMLP, percent CD63 positive cells
[9] = human whole blood, basophils activated with anti-FcεRI mAb or fMLP, percent CD63 positive cells, geometric mean

Sequence of PI3Kδ (O00329 whole entry, canonical isoform): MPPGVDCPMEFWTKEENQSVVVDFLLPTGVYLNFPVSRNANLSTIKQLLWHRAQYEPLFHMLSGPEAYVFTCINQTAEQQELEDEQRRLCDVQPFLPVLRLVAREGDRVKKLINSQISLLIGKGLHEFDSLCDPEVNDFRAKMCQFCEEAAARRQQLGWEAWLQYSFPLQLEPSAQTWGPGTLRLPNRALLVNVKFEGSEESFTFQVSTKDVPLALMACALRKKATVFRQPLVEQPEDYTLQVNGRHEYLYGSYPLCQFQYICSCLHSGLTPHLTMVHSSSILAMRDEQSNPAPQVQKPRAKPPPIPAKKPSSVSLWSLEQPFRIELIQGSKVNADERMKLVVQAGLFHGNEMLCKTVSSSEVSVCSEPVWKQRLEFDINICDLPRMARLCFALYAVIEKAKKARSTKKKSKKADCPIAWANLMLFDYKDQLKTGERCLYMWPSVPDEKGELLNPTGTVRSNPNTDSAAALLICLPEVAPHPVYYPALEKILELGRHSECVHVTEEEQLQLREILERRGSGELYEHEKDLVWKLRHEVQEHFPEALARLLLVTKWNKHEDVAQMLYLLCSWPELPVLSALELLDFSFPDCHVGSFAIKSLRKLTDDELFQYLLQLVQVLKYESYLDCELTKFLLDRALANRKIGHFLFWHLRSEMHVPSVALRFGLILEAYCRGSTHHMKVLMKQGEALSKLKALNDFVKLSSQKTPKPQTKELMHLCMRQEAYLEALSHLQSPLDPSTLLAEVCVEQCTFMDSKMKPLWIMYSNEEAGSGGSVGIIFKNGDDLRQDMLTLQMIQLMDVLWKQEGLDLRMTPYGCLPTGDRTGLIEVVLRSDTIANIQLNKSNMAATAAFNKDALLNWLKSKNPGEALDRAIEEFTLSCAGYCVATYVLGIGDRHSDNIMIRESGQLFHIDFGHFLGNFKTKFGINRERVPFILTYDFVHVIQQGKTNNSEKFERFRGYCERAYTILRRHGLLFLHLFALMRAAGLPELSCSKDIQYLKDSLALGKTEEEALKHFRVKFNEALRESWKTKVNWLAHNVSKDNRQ
Sequence of PI3Kδ (P27986 whole entry partner, canonical isoform): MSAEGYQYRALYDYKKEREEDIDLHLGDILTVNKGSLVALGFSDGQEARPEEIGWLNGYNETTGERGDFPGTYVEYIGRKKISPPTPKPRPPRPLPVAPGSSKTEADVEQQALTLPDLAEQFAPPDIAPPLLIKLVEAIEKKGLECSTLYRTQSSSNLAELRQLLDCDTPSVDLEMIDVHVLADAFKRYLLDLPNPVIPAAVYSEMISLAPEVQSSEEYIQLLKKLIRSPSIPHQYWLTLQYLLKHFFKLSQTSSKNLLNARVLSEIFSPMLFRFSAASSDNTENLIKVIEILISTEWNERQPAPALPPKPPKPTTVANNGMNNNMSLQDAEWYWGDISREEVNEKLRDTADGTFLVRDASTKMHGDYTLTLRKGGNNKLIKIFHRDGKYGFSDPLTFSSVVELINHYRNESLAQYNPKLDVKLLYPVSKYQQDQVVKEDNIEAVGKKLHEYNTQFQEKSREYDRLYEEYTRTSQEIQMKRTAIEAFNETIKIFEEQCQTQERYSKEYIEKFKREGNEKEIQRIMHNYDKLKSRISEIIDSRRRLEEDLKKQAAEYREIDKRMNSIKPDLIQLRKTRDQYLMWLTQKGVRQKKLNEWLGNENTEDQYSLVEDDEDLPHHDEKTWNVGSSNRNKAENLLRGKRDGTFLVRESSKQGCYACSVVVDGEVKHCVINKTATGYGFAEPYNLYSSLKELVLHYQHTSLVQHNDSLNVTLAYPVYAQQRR

| Structure (SMILES) | IC50 (PI3Kδ) | EC50 (basophils; [2]) | EC50 (basophils; [3]) | half-life at 2 μM [1, 4] | half-life at 2 μM [1, 5] | EC50 (basophils; [8]) | EC50 (basophils; [9]) | EC50 (basophils; [6]) | half-life at 2 μM [1, 7] | EC50 (basophils; basophil activation in human whole blood, comparison Table 4) |
| --- | --- | --- | --- | --- | --- | --- | --- | --- | --- | --- |
| C[C@H](Nc1nc(N)nc(N)c1C#N)c1nc2c(F)ccc(Cl)c2c(=O)n1-c1cncc(F)c1 [Compound 31, (S)-2,4-diamino-6-(1-(5-chloro-8-fluoro-3-(5-fluoropyridin-3-yl)-4-oxo-3,4-dihydroquinazolin-2-yl)ethylamino)pyrimidine-5-carbonitrile] | 1 nM | < 1 nM | 0.5 nM | > 10 h | > 10 h | – | – | – | – | – |
| C[C@H](Nc1ncnc2[nH]cnc12)c1nc2cccc(Cl)c2c(=O)n1-c1ccccc1 [Compound X, reference compound] | – | – | – | – | – | – | – | > 5 nM | < 2 h | – |
| C[C@H](Nc1nc(N)nc(N)c1C#N)c1nc2c(Cl)cccc2c(=O)n1-c1cccnc1 [Compound 22, (S)-2,4-diamino-6-(1-(8-chloro-4-oxo-3-(pyridin-3-yl)-3,4-dihydroquinazolin-2-yl)ethylamino)pyrimidine-5-carbonitrile] | 6 nM | 1 to 10 nM | 5 nM | 6 to 10 h | 9 h | – | – | – | – | – |
| C[C@H](Nc1nc(N)nc(N)c1C#N)c1nc2cccc(Cl)c2c(=O)n1-c1ccccc1 [Compound Z, reference compound] | – | – | – | – | – | – | – | – | < 5 h | < 1 nM |
| C[C@H](Nc1ncnc(N)c1C#N)c1nc2cccc(Cl)c2c(=O)n1-c1ccccc1 [Compound Y, reference compound] | – | – | – | – | – | – | – | > 10 nM | < 2 h | – |
| Cc1c(F)cncc1-n1c([C@H](C)Nc2nc(N)nc(N)c2C#N)nc2cccc(Cl)c2c1=O (atropisomer, axis not shown) [Compound 46, (S)-2,4-diamino-6-(1-(5-chloro-3-(5-fluoro-4-methylpyridin-3-yl)-4-oxo-3,4-dihydroquinazolin-2-yl)ethylamino)pyrimidine-5-carbonitrile] | 38 nM | – | – | 6 to 10 h | 8 h | – | – | – | – | – |
| CC[C@H](Nc1nc(N)nc(N)c1C#N)c1nc2c(F)ccc(C#N)c2c(=O)n1-c1cccnc1 [Compound 35, (S)-2-(1-((2,6-diamino-5-cyanopyrimidin-4-yl)amino)propyl)-8-fluoro-4-oxo-3-(pyridin-3-yl)-3,4-dihydroquinazoline-5-carbonitrile] | 35 nM | > 50 nM | 62 nM | – | – | – | – | – | – | – |
| Cc1ncccc1-n1c([C@H](C)Nc2nc(N)nc(N)c2C#N)nc2cccc(Cl)c2c1=O (atropisomer, axis not shown) [Compound 38, (S)-2,4-diamino-6-(1-(5-chloro-3-(2-methylpyridin-3-yl)-4-oxo-3,4-dihydroquinazolin-2-yl)ethylamino)pyrimidine-5-carbonitrile] | 13 nM | 1 to 10 nM | – | – | – | – | 9 nM | – | – | – |

Further lines, with some results ahead:

| IC50 (PI3Kδ) | EC50 (basophils; [2]) | EC50 (basophils; [3]) | half-life at 2 μM [1, 4] | half-life at 2 μM [1, 5] | EC50 (basophils; [8]) | EC50 (basophils; [9]) | Structure (SMILES) | EC50 (basophils; [6]) | half-life at 2 μM [1, 7] | EC50 (basophils; basophil activation in human whole blood, comparison Table 4) |
| --- | --- | --- | --- | --- | --- | --- | --- | --- | --- | --- |
| 0.4 nM | < 1 nM | 0.3 nM | > 10 h | > 10 h | – | – | C[C@H](Nc1nc(N)nc(N)c1C#N)c1nc2c(F)ccc(Cl)c2c(=O)n1-c1cccnc1 [Compound 24, (S)-2,4-diamino-6-(1-(5-chloro-8-fluoro-4-oxo-3-(pyridin-3-yl)-3,4-dihydroquinazolin-2-yl)ethylamino)pyrimidine-5-carbonitrile] | – | – | – |
| 4 nM | 10 to 50 nM | 19 nM | > 10 h | > 10 h | – | – | C[C@H](Nc1nc(N)nc(N)c1C#N)c1nc2cccc(Cl)c2c(=O)n1-c1cncc(C(F)F)c1 [Compound 15, (S)-2,4-diamino-6-(1-(5-chloro-3-(5-(difluoromethyl)pyridin-3-yl)-4-oxo-3,4-dihydroquinazolin-2-yl)ethylamino)pyrimidine-5-carbonitrile] | – | – | – |
| 1 nM | – | – | 3 to 6 h | 3 h | 1 to 10 nM | 2 nM | Cc1ncccc1-n1c([C@H](C)Nc2nc(N)nc(N)c2C#N)nc2cccc(Cl)c2c1=O (atropisomer, axis not shown) [Compound 39, (S)-2,4-diamino-6-(1-(5-chloro-3-(2-methylpyridin-3-yl)-4-oxo-3,4-dihydroquinazolin-2-yl)ethylamino)pyrimidine-5-carbonitrile] | – | – | – |
| 0.7 nM | < 1 nM | 0.8 nM | > 10 h | > 10 h | – | – | C[C@H](Nc1nc(N)nc(N)c1C#N)c1nc2c(Cl)ccc(Cl)c2c(=O)n1-c1cccnc1 [Compound 23, (S)-2,4-diamino-6-(1-(5,8-dichloro-4-oxo-3-(pyridin-3-yl)-3,4-dihydroquinazolin-2-yl)ethylamino)pyrimidine-5-carbonitrile] | – | – | – |
| 4 nM | 1 to 10 nM | 3 nM | 6 to 10 h | 8 h | – | – | COc1cncc(-n2c([C@H](C)Nc3nc(N)nc(N)c3C#N)nc3cccc(Cl)c3c2=O)c1 [Compound 14, (S)-2,4-diamino-6-(1-(5-chloro-3-(5-methoxypyridin-3-yl)-4-oxo-3,4-dihydroquinazolin-2-yl)ethylamino)pyrimidine-5-carbonitrile] | – | – | – |
| 2 nM | 1 to 10 nM | 3 nM | > 10 h | > 10 h | – | – | C[C@H](Nc1nc(N)nc(N)c1C#N)c1nc2cccc(C(F)(F)F)c2c(=O)n1-c1cccnc1 [Compound 9, (S)-2,4-diamino-6-(1-(4-oxo-3-(pyridin-3-yl)-5-(trifluoromethyl)-3,4-dihydroquinazolin-2-yl)ethylamino)pyrimidine-5-carbonitrile] | – | – | – |
| 2 nM | 1 to 10 nM | 2 nM | > 10 h | > 10 h | – | – | CC[C@H](Nc1nc(N)nc(N)c1C#N)c1nc2cccc(Cl)c2c(=O)n1-c1cccnc1 [Compound 2, (S)-2,4-diamino-6-(1-(5-chloro-4-oxo-3-(pyridin-3-yl)-3,4-dihydroquinazolin-2-yl)propylamino)pyrimidine-5-carbonitrile] | – | – | – |
| 0.4 nM | – | – | > 10 h | > 10 h | 1 to 10 nM | 4 nM | Cc1ccncc1-n1c([C@H](C)Nc2nc(N)nc(N)c2C#N)nc2cccc(Cl)c2c1=O (atropisomer, axis not shown) [Compound 41, (S)-2,4-diamino-6-(1-(5-chloro-3-(4-methylpyridin-3-yl)-4-oxo-3,4-dihydroquinazolin-2-yl)ethylamino)pyrimidine-5-carbonitrile] | – | – | – |
| 0.6 nM | 1 to 10 nM | 2 nM | > 10 h | > 10 h | – | – | N#Cc1c(N)nc(N)nc1N[C@H](c1nc2cccc(Cl)c2c(=O)n1-c1cccnc1)C1CC1 [Compound 3, (S)-2,4-diamino-6-((5-chloro-4-oxo-3-(pyridin-3-yl)-3,4-dihydroquinazolin-2-yl)(cyclopropyl)methylamino)pyrimidine-5-carbonitrile] | – | – | – |
| 0.6 nM | 1 to 10 nM | 4 nM | 6 to 10 h | 9 h | – | – | N#Cc1c(N)nc(N)nc1N[C@H](c1nc2c(Cl)ccc(Cl)c2c(=O)n1-c1cccnc1)C1CC1 [Compound 28, (S)-2,4-diamino-6-(cyclopropyl(5,8-dichloro-4-oxo-3-(pyridin-3-yl)-3,4-dihydroquinazolin-2-yl)methylamino)pyrimidine-5-carbonitrile] | – | – | – |
| 4 nM | 1 to 10 nM | 5 nM | – | – | – | – | Cc1cncc(-n2c([C@@H](Nc3nc(N)nc(N)c3C#N)C3CC3)nc3cccc(Cl)c3c2=O)c1 [Compound 17, (S)-2,4-diamino-6-((5-chloro-3-(5-methylpyridin-3-yl)-4-oxo-3,4-dihydroquinazolin-2-yl)(cyclopropyl)methylamino)pyrimidine-5-carbonitrile] | – | – | – |
